Legend:
Assay in all cases: relative viability (nuclei count vs DMSO), 5 days (fraction); higher = more cells survive
[1] = compound: C1COCCN1C2=NC(=NC3=C2OC4=C3C=CC=N4)C5=CC(=CC=C5)NC(=O)C6=CN=C(C=C6)N + CC1(C)CCC(c2ccc(Cl)cc2)=C(CN2CCN(c3ccc(C(=O)NS(=O)(=O)c4ccc(N[C@H](CCN5CCOCC5)CSc5ccccc5)c(S(=O)(=O)C(F)(F)F)c4)cc3)CC2)C1 [Navitoclax] (partner 0.5 µM)
Outline: (§1)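 The day after seeding in 1536-well plates, lung cancer cell lines were treated by pin tool with a single drug, or with a fixed anchor-drug dose together with five library-drug doses (not always all listed) in √10 steps. After 5 days, a combined fix-and-stain solution (final 0.05% Triton X-100, 1% formaldehyde, 1 ug/ml Hoechst) was added. Nuclei counted on 4× images gave relative viability as treated counts over vehicle counts, reported as the median of duplicate plates.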

SGI-1776 + Luminespib = compound: CN1CCC(CNc2ccc3ncc(-c4cccc(OC(F)(F)F)c4)n3n2)CC1 [SGI-1776] + CCNC(=O)c1noc(-c2cc(C(C)C)c(O)cc2O)c1-c1ccc(CN2CCOCC2)cc1 [Luminespib] (partner 0.01 µM)
Outline: as §1

SGI-1776 + Pictilisib = compound: CN1CCC(CNc2ccc3ncc(-c4cccc(OC(F)(F)F)c4)n3n2)CC1 [SGI-1776] + CS(=O)(=O)N1CCN(Cc2cc3nc(-c4cccc5[nH]ncc45)nc(N4CCOCC4)c3s2)CC1 [Pictilisib] (partner 1 µM)
Outline: as §1

Cell Line	relative viability ([1]; first compound 0.02 µM)	relative viability ([1]; first compound 0.06325 µM)	relative viability ([1]; first compound 0.2 µM)	relative viability ([1]; first compound 0.6325 µM)	relative viability ([1]; first compound 2 µM)	relative viability (SGI-1776 + Luminespib; first compound 0.08 µM)	relative viability (SGI-1776 + Luminespib; first compound 0.8 µM)	relative viability (SGI-1776 + Luminespib; first compound 2.53 µM)	relative viability (SGI-1776 + Luminespib; first compound 8 µM)	relative viability (SGI-1776 + Pictilisib; first compound 0.08 µM)	relative viability (SGI-1776 + Pictilisib; first compound 0.8 µM)	relative viability (SGI-1776 + Pictilisib; first compound 2.53 µM)	relative viability (SGI-1776 + Pictilisib; first compound 8 µM)
201T	1.2	1.23	1.14	1.12	1.1	1.04	1.09	1.05	1.03	0.7	0.718	0.687	0.6
A549	1.37	1.22	1.13	1.18	0.668					0.566	0.513	0.392	0.267
A-427	1	0.964	0.812	0.864	0.835	0.915	0.856	0.755	0.869	0.704	0.694	0.824	0.657
ABC-1						0.308	0.577	0.52	0.51	0.675	0.666	0.745	0.66
BEN	0.0527	0.058	0.0742	0.0452	0.0457	0.434	0.39	1.1	0.475	0.736	0.643	0.504	0.396
CAL-12T	1.06	1.41	1.23	1.11	0.883	0.331	0.394	0.452	0.519	0.559	0.592	0.341	0.385
COR-L23	1.14	1.1	1.05	1.13	0.666	0.702	0.68	0.743	0.511	0.916	0.868	0.821	0.667
COR-L 105	0.805	0.754	0.69	0.531	0.584	0.741	0.713	0.691	0.834	0.409	0.389	0.342	0.308
Calu-6	1.03	1.01	0.846	0.809	0.384					0.974	0.911	0.808	0.482
ChaGo-K-1	0.96	0.863	0.619	1.01	0.839	0.586	0.51	0.706	0.556	0.699	0.844	0.49	0.415
EBC-1	0.397	0.368	0.32	0.377	0.234					0.436	0.374	0.299	0.15
EKVX	1.17	0.939	0.944	0.805	0.684	0.868	0.937	0.875	0.863	0.421	0.453	0.455	0.379
EMC-BAC-2	1.21	1.28	1.26	1.12	0.984	1.2	1.27	1.26	1.11	0.539	0.555	0.567	0.485
EPLC-272H	1.23	1.06	1.13	1.08	0.893	0.402	0.536	0.501	0.2	0.315	0.318	0.188	0.259
H3255	0.54	0.553	0.533	0.421	0.467	0.988	1.1	0.894	0.665	0.479	0.451	0.456	0.392
HARA	1.2	1.17	1.21	1.19	0.897	0.862	0.67	0.67	0.0476	0.445	0.373	0.306	0.243
HCC-15	0.678	0.786	0.684	0.605	0.452	0.353	0.34	0.325	0.186	0.657	0.839	0.665	0.468
HCC-44	1.08	1.15	1.08	1	0.571	1.06	0.953	1.01	0.693	0.662	0.589	0.653	0.42
HCC-78	0.709	0.728	0.906	0.769	0.645					0.27	0.231	0.199	0.164
HCC-366	1.13	1.21	1	1.11	0.526					0.158	0.192	0.137	0.0802
HCC-827	1.02	1.07	1.08	1.05	1.07	0.551	0.622	0.782	0.348	1.02	1.21	1.09	0.877
HOP-62	1.05	1.32	1.27	1.01	0.735	0.835	0.93	0.941	0.89	0.849	0.734	1.08	0.607
IA-LM		0.751	0.705	0.656	0.374					0.281	0.328	0.389	0.242
LC-2-ad	0.461	0.529	0.418	0.611	0.379	0.983	1.09	1.06	0.769	0.428	0.522	0.544	0.254
LCLC-97TM1		0.532	0.673	0.546	0.43	0.947	0.847	0.746	0.742	0.25	0.296	0.196	0.179
LCLC-103H						0.965	0.88	0.948	0.729	0.752	0.608	0.554	0.45
LK-2	0.953	0.845	0.869	0.714	0.54	0.17	0.188	0.257	0.159	0.504	0.563	0.47	0.308
